Values of other authors as cited in patent US5346701A, “Transmucosal delivery of macromolecular drugs” (TheraTech, Inc., priority 1993, dated 1994).
Blank lines part the entries; values can stand above or below the compound they belong to.

How the values were obtained:
[1] = nasal membranes
[2] = system: vascular smooth muscle cells
[3] = system: antithrombin III (AT III); details: clinically used heparin
[4] = system: delayed-typehypersensitivity
platelets = details: in vitro

Compound: C[C@H](CCC(=O)O)[C@H]1CC[C@H]2[C@@H]3[C@H](O)C[C@@H]4C[C@H](O)CC[C@]4(C)[C@H]3CC[C@]12C [chenodeoxycholate]
order of effectiveness as enhancer of insulin absorption [1]: deoxycholate<chenodeoxycholate<cholate<ursodeoxycholate

Compound: C[C@H](CCC(=O)O)[C@H]1CC[C@H]2[C@@H]3[C@H](O)C[C@@H]4C[C@H](O)CC[C@]4(C)[C@H]3C[C@H](O)[C@]12C [cholate]
order of effectiveness as enhancer of insulin absorption [1]: deoxycholate<chenodeoxycholate<cholate<ursodeoxycholate

Compound: C[C@H](CCC(=O)O)[C@H]1CC[C@H]2[C@@H]3[C@@H](O)C[C@@H]4C[C@H](O)CC[C@]4(C)[C@H]3CC[C@]12C [ursodeoxycholate]
order of effectiveness as enhancer of insulin absorption [1]: deoxycholate<chenodeoxycholate<cholate<ursodeoxycholate

acceleration of rate of thrombin inactivation (thrombin): up to 2000 -fold
Compound: heparin
proliferation of vascular smooth muscle cells [2]: inhibits the proliferation
proliferation of renal mesengial cells (renal mesengial cells): inhibits the proliferation
proportion of heparin having high affinity for AT III [3]: Approximately 33%
prolongation of partial thromboplastin time or release of plasma lipase activity (colon of a baboon, without bile salt): not apparent
activity (partial thromboplastin time / plasma lipase) (with sodium cholate or deoxycholate in the formulation): significant activity was detected
angiogenesis (angiogenesis): inhibits angiogenesis
delayed-type hypersensitivity [4]: suppresses
release of platelets (platelets): enhances the release of platelets
